Here are results for 11 compounds from EP2891655A1, “Anilides-alkylthioethers as ACAT inhibitors for the treatment de dermatological diseases” (PIERRE FABRE MEDICAMENT, priority 2011, dated 2012).

For data set [1], the system named is ACAT. The data set can be described thus: ACAT inhibition in vivo: plasma cholesterol in rats on a hypercholesterolemic diet. To be noted: oral route, 4 days of hypercholesterolemic diet with simultaneous treatment, plasma cholesterol on day 5 (colorimetric). The text has this: Les rats sont soumis à un régime alimentaire hypercholestérolémique pendant 4 jours. Les animaux sont traités simultanément par voie orale avec les différentes molécules. Le cinquième jour les animaux sont euthanasiés et la variation des taux de cholestérol plasmatique circulant analysée par méthode colorimétrique. Les activités sont exprimées en doses efficaces à 50% (DE50), l'unité est le mg/kg.

For data set [2], the system named is ACAT. Briefly: ACAT activity, rat liver microsomes (method of Chautan et al.). In kind it is biochemical. To be noted: radiolabelled precursor, cholesteryl-oléate formed quantified, read-out: microsomes CI50. The text has this:
(§1) Les expérimentations utilisent la méthode de Chautan M. et coll., (Anal. Biochem. 1988) afin de déterminer l'activité ACAT. Les activités sont exprimées en concentrations inhibitrices à 50% (CI50), l'unité est le nM. Deux types de préparations enzymatiques ont été utilisés pour analyser l'activité putative des composés : microsomes hépatiques de rat et cellules humaines intactes HepG2. Les microsomes sont obtenus à partir de fractionnement subcellulaire utilisant une étape d'homogénéisation puis une étape d'ultracentrifugation. Le dosage de l'activité ACAT est réalisé par incubation des microsomes hépatiques ou des cellules avec le composé d'intérêt ainsi que le précurseur radiomarqué. La séparation du produit de la réaction à partir du milieu d'incubation acellulaire ou cellulaire est réalisée par élution sur colonne de silice; le cholesteryl-oléate formé est ensuite quantifié en radioanalyse.
In general terms: Microsomes from liver hold many membrane-bound enzymes, among them those of drug oxidation.

Data set [3] relates to ACAT. Briefly: ACAT activity, intact HepG2 cells (method of Chautan et al.). In kind it is cell-based, humaines.
Description: as §1

For another data set, the system named is procollagène de type 1. To be noted: protein level and mRNA; cited from earlier work.
In a further data set the test system is glandes sébacées. To be noted: primate, chronic treatment; cited from earlier work.
[4] abbreviates: intact human HepG2 cells; radiolabelled precursor, cholesteryl-oléate formed quantified; read-out: HepG2 CI50.
Setting [5] is: read-out: HepG2 CI50; intact human HepG2 cells; radiolabelled precursor, cholesteryl-oléate formed quantified.

As for `CCCCCCCCCCCCSC(C)(C)C(=O)N1CCCCC1C(=O)Nc1cc(C)c(O)c(C)c1C` (stereo not shown) [Exemple 1, 1-(2-(dodécylthio)-2-méthylpropanoyl)-N-(4-hydroxy-2,3,5-triméthyl-phényl)pipéridine-2-carboxamide], in the data set with ACAT [1], the “Etude in vivo chez le rat DE50” value is on record as 0.63 mg/kg. Further, the IC50 in the data set with ACAT [2] and with ACAT [3] (setting [4]) was 47 nM throughout.

`CCCCCCCCCCCCSC(C)(C)C(=O)N1CCCC1C(=O)Nc1cc(C)c(O)c(C)c1C` (stereo not shown) [Exemple 2, 1-(2-(dodécylthio)-2-méthylpropanoyl)-N-(4-hydroxy-2,3,5-triméthyl-phényl)-pyrrolidine-2-carboxamide]: in the data set with ACAT [1], the “Etude in vivo chez le rat DE50” value is <0.63 mg/kg. Besides, the results for the IC50 in the data set with ACAT [2] and in the data set on ACAT [3] (setting [4]) were 81 nM and 48 nM, respectively.

On to `CCCCCCCCCCCCSC(C)(C)C(=O)N1CCC[C@H]1C(=O)Nc1cc(C)c(O)c(C)c1C` [Exemple 3, (S)-1-(2-(dodécylthio)-2-méthylpropanoyl)-N-(4-hydroxy-2,3,5-triméthyl-phényl)pyrrolidine-2-carboxamide], for which the “Etude in vivo chez le rat DE50” value in the data set with ACAT [1] is reported as <0.63 mg/kg. Moreover, the IC50 is 18 nM in the data set with ACAT [2] and 34 nM in the data set on ACAT [3] (setting [4]).

As for `CCCCCCCCCCSC(C)(C)C(=O)N1CCC[C@H]1C(=O)Nc1cc(C)c(O)c(C)c1C` [Exemple 4, (S)-1-(2-(décylthio)-2-méthylpropanoyl)-N-(4-hydroxy-2,3,5-triméthyl-phényl)-pyrrolidine-2-carboxamide], the “Etude in vivo chez le rat DE50” value in the data set on ACAT [1] is reported as 0.63 mg/kg.

Take `CCCCCCCCCCCCSC(C)(C)C(=O)N1CSC[C@H]1C(=O)Nc1cc(C)c(O)c(C)c1C` [Exemple 5, (R)-3-(2-(dodécylthio)-2-méthylpropanoyl)-N-(4-hydroxy-2,3,5-triméthyl-phényl)thiazolidine-4-carboxamide]: the “Etude in vivo chez le rat DE50” value in the data set on ACAT [1] is <0.63 mg/kg. Further, the IC50 in the data set with ACAT [2] was 34 nM; with ACAT [3] (setting [4]), 39 nM.

As to `CCCCCCCCCCCCSC(C(=O)Nc1cc(C)c(O)c(C)c1C)c1ccsc1` (stereo not shown) [Exemple 6, 2-(dodécylthio)-N-(4-hydroxy-2,3,5-triméthylphényl)-2-(thiophén-3-yl)acétamide], in the data set with ACAT [1], the “Etude in vivo chez le rat DE50” value came out at 0.17 mg/kg. Besides, the figures for the IC50 in the data set on ACAT [2] and in the data set with ACAT [3] (setting [4]) were 71 nM and 27 nM, respectively.

Consider `CCCCCCCCCCCCSC(C(=O)Nc1c(C)c(C)c(N)c(C)c1C)c1ccsc1` (stereo not shown) [Exemple 7, chlorhydrate du N-(4-amino-2,3,5,6-tétraméthylphényl)-2-(dodécylthio)-2-(thiophén-3-yl)acétamide], for which the “Etude in vivo chez le rat DE50” value with ACAT [1] came out at 0.16 mg/kg. Further, the results for the IC50 in the data set on ACAT [2] and in the data set on ACAT [3] (setting [5]) were 41 nM and 93 nM, respectively.

As for `CCCCCCCCCCCCSC(C(=O)Nc1c(C)c(C)c(N)c(C)c1C)c1cccs1` (stereo not shown) [Exemple 8, chlorhydrate du N-(4-amino-2,3,5,6-tétraméthylphényl)-2-(dodécylthio)-2-(thiophén-2-yl)acétamide], the “Etude in vivo chez le rat DE50” value in the data set on ACAT [1] was 0.26 mg/kg. The results for the IC50 with ACAT [2] and in the data set on ACAT [3] (setting [5]) were 69 nM and 38 nM, respectively.

For the compound `CSc1cc(C)nc(SC)c1NC(=O)CN1CCN(CCSc2nc3ccccc3[nH]2)CC1` [K-604], the “procollagène de type 1” value in the data set on procollagène de type 1 is “augmentation de procollagène de type 1”.

Turning to `CC(C)c1cccc(C(C)C)c1NC(=O)NCC1(c2ccc(N(C)C)cc2)CCCC1.Cl` [PD 132301-2], the “effet secondaire sur les glandes sébacées” value in the data set on glandes sébacées is listed as “atrophie des glandes sébacées”.

Turning to `CCCCCCCCN1CCc2c(C)c(CC(=O)O)c(C)c(NC(=O)C(C)(C)C)c21` [pactimibe], the “procollagène de type 1” value in the data set with procollagène de type 1 was “n'ont pas cette propriété”.
